The target of this assay is human Nav1.8 (Homo sapiens (Human), UniProt Q9Y5Y9). Description: E-VIPR optical membrane potential assay with electrical stimulation. As to conditions: HEK cells expressing human Nav1.8. In kind it is cell-based. The text has this:
Sodium channels are voltage-dependent proteins that can be activated by inducing membrane voltage changes by applying electric fields. […] The instrument comprises a microtiter plate handler, an optical system for exciting the coumarin dye while simultaneously recording the coumarin and oxonol emissions, a waveform generator, a current- or voltage-controlled amplifier, and a device for inserting electrodes in well. Under integrated computer control, this instrument passes user-programmed electrical stimulus protocols to cells within the wells of the microtiter plate.
24 hours before the assay on E-VIPR, HEK cells expressing human Nav1.8 were seeded in 384-well poly-lysine coated plates at 15,000-20,000 cells per well. […] Cells were grown in vented cap flasks, in 90% humidity and 5% CO2.
To make the solution added volume of 10% Pluronic F127 stock equal to volumes of CC2-DMPE+DiSBAC6(3). The order of preparation was first mixing Pluronic and CC2-DMPE, then adding DiSBAC6(3) while vortexing, then adding Bath1+β-Cyclodextrin.
1) Pre-spotted compounds (in neat DMSO) into compound plates. […] Final compound plate volume was 80 μL (80-fold intermediate dilution from 1 μL DMSO spot; 160-fold final dilution after transfer to cell plate).
2) Prepared Hexyl Dye Solution.
3) Prepared cell plates. On the day of the assay, medium was aspirated and cells were washed three times with 100 μL of Bath1 Solution, maintaining 25 μL residual volume in each well.
4) Dispensed 25 μL per well of Hexyl Dye Solution into cell plates. Incubated for 20-35 minutes at room temp or ambient conditions.
5) Dispensed 80 μL per well of Bath1 into compound plates. Acid Yellow-17 (1 mM) was added and Potassium Chloride was altered from 4.5 to 20 mM depending on the NaV subtype and assay sensitivity.
6) Washed cell plates three times with 100 μL per well of Bath1, leaving 25 μL of residual volume. Then transferred 25 uL per well from Compound Plates to Cell Plates. Incubated for 20-35 minutes at room temp/ambient condition.
7) Read Plate on E-VIPR. […] A pre-stimulus recording was performed for 0.5 seconds to obtain the un-stimulated intensities baseline. The stimulatory waveform was followed by 0.5 seconds of post-stimulation recording to examine the relaxation to the resting state.
Data was analyzed and reported as normalized ratios of emission intensities measured in the 460 nm and 580 nm channels. The response as a function of time was reported as the ratios obtained using the following formula: […]
The data was further reduced by calculating the initial (Ri) and final (Rf) ratios. These were the average ratio values during part or all of the pre-stimulation period, and during sample points during the stimulation period. The response to the stimulus R=Rf/Ri was then calculated and reported as a function of time.
Control responses were obtained by performing assays in the presence of a compound with the desired properties (positive control), such as tetracaine, and in the absence of pharmacological agents (negative control). Responses to the negative (N) and positive (P) controls were calculated as above. The compound antagonist activity A is defined as:
[formula] where R is the ratio response of the test compound
Sequence of human Nav1.8 (Q9Y5Y9 whole entry): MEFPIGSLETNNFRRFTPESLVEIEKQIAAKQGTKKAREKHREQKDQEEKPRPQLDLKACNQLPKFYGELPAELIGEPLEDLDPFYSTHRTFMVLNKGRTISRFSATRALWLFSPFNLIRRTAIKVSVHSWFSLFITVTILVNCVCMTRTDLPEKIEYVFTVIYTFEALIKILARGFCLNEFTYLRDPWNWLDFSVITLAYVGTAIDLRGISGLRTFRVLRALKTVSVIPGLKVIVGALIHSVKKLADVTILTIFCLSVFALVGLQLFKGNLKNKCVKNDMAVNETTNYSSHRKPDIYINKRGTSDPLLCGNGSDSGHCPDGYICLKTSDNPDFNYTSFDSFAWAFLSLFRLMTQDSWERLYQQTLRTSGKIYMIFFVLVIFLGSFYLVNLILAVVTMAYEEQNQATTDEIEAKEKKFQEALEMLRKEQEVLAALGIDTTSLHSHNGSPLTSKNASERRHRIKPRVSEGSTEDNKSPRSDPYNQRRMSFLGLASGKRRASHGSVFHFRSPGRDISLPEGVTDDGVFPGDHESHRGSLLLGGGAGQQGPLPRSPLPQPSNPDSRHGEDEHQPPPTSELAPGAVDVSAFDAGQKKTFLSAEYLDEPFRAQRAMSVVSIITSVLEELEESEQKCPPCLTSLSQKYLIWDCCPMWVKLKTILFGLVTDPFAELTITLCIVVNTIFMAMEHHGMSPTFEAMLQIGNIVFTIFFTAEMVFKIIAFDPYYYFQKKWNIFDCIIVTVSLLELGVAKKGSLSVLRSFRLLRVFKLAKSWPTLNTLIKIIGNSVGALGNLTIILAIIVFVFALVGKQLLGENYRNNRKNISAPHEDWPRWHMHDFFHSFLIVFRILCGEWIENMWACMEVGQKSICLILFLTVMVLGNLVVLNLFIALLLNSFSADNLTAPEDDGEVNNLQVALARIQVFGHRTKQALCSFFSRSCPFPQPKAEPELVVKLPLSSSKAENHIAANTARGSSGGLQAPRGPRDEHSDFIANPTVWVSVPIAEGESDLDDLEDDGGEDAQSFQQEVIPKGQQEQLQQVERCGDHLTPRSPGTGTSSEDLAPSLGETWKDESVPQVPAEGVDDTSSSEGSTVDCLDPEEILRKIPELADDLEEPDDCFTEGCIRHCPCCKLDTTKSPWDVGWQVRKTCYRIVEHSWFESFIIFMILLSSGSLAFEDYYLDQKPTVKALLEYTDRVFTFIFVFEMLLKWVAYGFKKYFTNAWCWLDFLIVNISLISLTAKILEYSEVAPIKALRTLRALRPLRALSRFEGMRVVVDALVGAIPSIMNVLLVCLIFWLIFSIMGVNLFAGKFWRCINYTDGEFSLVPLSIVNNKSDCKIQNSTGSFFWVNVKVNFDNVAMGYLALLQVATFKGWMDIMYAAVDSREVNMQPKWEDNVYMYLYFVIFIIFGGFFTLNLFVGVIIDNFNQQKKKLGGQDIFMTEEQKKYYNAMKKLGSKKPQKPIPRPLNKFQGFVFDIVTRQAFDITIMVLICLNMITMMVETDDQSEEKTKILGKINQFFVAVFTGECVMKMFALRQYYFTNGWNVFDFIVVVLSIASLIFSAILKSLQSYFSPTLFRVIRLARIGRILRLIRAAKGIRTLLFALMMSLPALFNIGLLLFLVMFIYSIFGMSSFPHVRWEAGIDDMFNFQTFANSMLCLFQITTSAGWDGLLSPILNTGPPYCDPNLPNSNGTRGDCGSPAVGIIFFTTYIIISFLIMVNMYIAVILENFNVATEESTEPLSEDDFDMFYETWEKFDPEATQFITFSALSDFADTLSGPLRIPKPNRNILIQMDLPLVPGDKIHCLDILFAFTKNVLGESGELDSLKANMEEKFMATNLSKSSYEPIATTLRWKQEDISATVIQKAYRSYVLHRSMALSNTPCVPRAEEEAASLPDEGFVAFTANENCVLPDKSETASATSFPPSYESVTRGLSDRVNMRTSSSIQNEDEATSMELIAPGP
Broadly, the IC50 is the concentration that inhibits the measured activity by half. Higher therefore signals weaker potency. For the molecule `O=C(Nc1cc[nH]c(=O)c1)c1ccc(C(F)(F)F)cc1Oc1ccc(F)cc1Cl` [Compound 77, 2-(2-chloro-4-fluorophenoxy)-N-(2-oxo-1,2-dihydropyridin-4-yl)-4-(trifluoromethyl)benzamide], the IC50 stood at 0.029 µM.
Take `O=C(Nc1cc[nH]c(=O)c1)c1ccc(C(F)(F)F)cc1Oc1ccc(Cl)cc1` [Compound 78, 2-(4-chlorophenoxy)-N-(2-oxo-1,2-dihydropyridin-4-yl)-4-(trifluoromethyl)benzamide]: the IC50 came out at 0.031 µM.
Then `O=C(Nc1cc[nH]c(=O)c1)c1ccc(C(F)(F)F)cc1Oc1ccccc1OC(F)(F)F` [Compound 80, N-(2-oxo-1,2-dihydropyridin-4-yl)-2-(2-(trifluoromethoxy)phenoxy)-4-(trifluoromethyl)benzamide], with 0.105 µM; and `COc1ccc(Oc2cc(C(F)(F)F)ccc2C(=O)Nc2cc[nH]c(=O)c2)cc1F` [Compound 81, 2-(3-fluoro-4-methoxyphenoxy)-N-(2-oxo-1,2-dihydropyridin-4-yl)-4-(trifluoromethyl)benzamide], with 0.026 µM; and `O=C(Nc1cc[nH]c(=O)c1)c1ccc(C(F)(F)F)cc1Oc1ccccc1OC(F)F` [Compound 83, 2-(2-(difluoromethoxy)phenoxy)-N-(2-oxo-1,2-dihydropyridin-4-yl)-4-(trifluoromethyl)benzamide], with 0.046 µM.
Consider `COc1ccc(Oc2cc(C(F)(F)F)ccc2C(=O)Nc2cc[nH]c(=O)c2)c(F)c1` [Compound 84, 2-(2-fluoro-4-methoxyphenoxy)-N-(2-oxo-1,2-dihydropyridin-4-yl)-4-(trifluoromethyl)benzamide], for which inhibition was half-maximal at 0.046 µM (IC50).
The same measure for `Cc1c[nH]c(=O)cc1NC(=O)c1ccc(C(F)(F)F)cc1Oc1ccc(F)cc1C` [Compound 86, 2-(4-fluoro-2-methylphenoxy)-N-(5-methyl-2-oxo-1,2-dihydropyridin-4-yl)-4-(trifluoromethyl)benzamide]: 3.55 µM; for `COc1c(F)cccc1Oc1cc(C(F)(F)F)ccc1C(=O)Nc1cc[nH]c(=O)c1` [Compound 87, 2-(3-fluoro-2-methoxyphenoxy)-N-(2-oxo-1,2-dihydropyridin-4-yk)-4-(trifluoromethyl)benzamide]: 0.027 µM.
The same measure for `COc1ccc(Oc2cc(C(F)(F)C(F)(F)F)ccc2C(=O)Nc2cc[nH]c(=O)c2)cc1F` [Compound 89, 2-(3-fluoro-4-methoxyphenoxy)-N-(2-oxo-1,2-dihydropyridin-4-yl)-4-(perfluoroethyl)benzamide]: 0.016 µM.
In turn, `Cc1cc(C)c(C)c(Oc2ccc(C(F)(F)F)cc2C(=O)Nc2cc[nH]c(=O)c2)c1` [Compound 91, N-(2-oxo-1,2-dihydropyridin-4-yl)-5-(trifluoromethyl)-2-(2,3,5-trimethylphenoxy)benzamide] had an IC50 of 0.42 µM.
The same measure for `Cc1ccc(Oc2ccc(C(F)(F)F)cc2C(=O)Nc2cc[nH]c(=O)c2)c(F)c1F` [Compound 92, 2-(2,3-difluoro-4-methylphenoxy)-N-(2-oxo-1,2-dihydropyridin-4-yl)-5-(trifluoromethyl)benzamide]: 0.135 µM; for `Cc1cc(C)c(Oc2ccc(C(F)(F)F)cc2C(=O)Nc2cc[nH]c(=O)c2)cc1C` [Compound 93, N-(2-oxo-1,2-dihydropyridin-4-yl)-5-(trifluoromethyl)-2-(2,4,5-trimethylphenoxy)benzamide]: 1.45 µM; for `Cc1cc(C)c(C)c(Oc2ccc(F)cc2C(=O)Nc2cc[nH]c(=O)c2)c1` [Compound 94, 5-fluoro-N-(2-oxo-1,2-dihydropyridin-4-yl)-2-(2,3,5-trimethylphenoxy)benzamide]: 1.4 µM.
`O=C(Nc1cc[nH]c(=O)c1)c1cc(F)ccc1Oc1ccccc1` [Compound 95, 5-fluoro-N-(2-oxo-1,2-dihydropyridin-4-yl)-2-phenoxybenzamide] came in with an IC50 of 3.45 µM.
In turn, `O=C(Nc1cc[nH]c(=O)c1)c1cc(F)ccc1Oc1ccc(C2CC2)cc1` [Compound 96, 2-(4-cyclopropylphenoxy)-5-fluoro-N-(2-oxo-1,2-dihydropyridin-4-yl)benzamide] returned a 50% inhibitory concentration (IC50) of 0.4 µM.
Molecule `CC(C)(C)Oc1ccc(Oc2ccc(F)cc2C(=O)Nc2cc[nH]c(=O)c2)cc1` [Compound 97, 2-(4-(tert-butoxy)phenoxy)-5-fluoro-N-(2-oxo-1,2-dihydropyridin-4-yl)benzamide] registered an IC50 of 0.745 µM.
On to `CCOc1ccc(Oc2ccc(F)cc2C(=O)Nc2cc[nH]c(=O)c2)cc1` [Compound 98, 2-(4-ethoxyphenoxy)-5-fluoro-N-(2-oxo-1,2-dihydropyridin-4-yl)benzamide], for which the 50% inhibitory concentration (IC50) was found to be 0.3 µM.
Then `CC(C)c1ccc(Oc2ccc(F)cc2C(=O)Nc2cc[nH]c(=O)c2)cc1` [Compound 99, 5-fluoro-2-(4-isopropylphenoxy)-N-(2-oxo-1,2-dihydropyridin-4-yl)benzamide], with 5.15 µM; and `CCCOc1ccc(Oc2ccc(F)cc2C(=O)Nc2cc[nH]c(=O)c2)cc1` [Compound 100, 5-fluoro-N-(2-oxo-1,2-dihydropyridin-4-yl)-2-(4-propoxyphenoxy)benzamide], with 0.155 µM; and `COCCc1ccc(Oc2ccc(F)cc2C(=O)Nc2cc[nH]c(=O)c2)cc1` [Compound 102, 5-fluoro-2-(4-(2-methoxyethyl)phenoxy)-N-(2-oxo-1,2-dihydropyridin-4-yl)benzamide], with 17.1 µM.
Turning to `COc1ccc(Oc2ccc(F)cc2C(=O)Nc2cc[nH]c(=O)c2)c(Cl)c1` [Compound 103, 2-(2-chloro-4-methoxyphenoxy)-5-fluoro-N-(2-oxo-1,2-dihydropyridin-4-yl)benzamide], the midpoint of inhibition, the IC50, lay at 0.33 µM.
`COc1ccc(Oc2ccc(F)cc2C(=O)Nc2cc[nH]c(=O)c2)cc1` [Compound 104, 5-fluoro-2-(4-methoxyphenoxy)-N-(2-oxo-1,2-dihydropyridin-4-yl)benzamide] returned an IC50 of 1.15 µM.
`Cc1cc(C)c(Oc2ccc(F)cc2C(=O)Nc2cc[nH]c(=O)c2)cc1C` [Compound 105, 5-fluoro-N-(2-oxo-1,2-dihydropyridin-4-yl)-2-(2,4,5-trimethylphenoxy)benzamide] registered an IC50 of 3.55 µM.
Then `O=C(Nc1cc[nH]c(=O)c1)c1cc(F)ccc1Oc1ccc(OCC(F)(F)F)cc1` [Compound 107, 5-fluoro-N-(2-oxo-1,2-dihydropyridin-4-yl)-2-(4-(2,2,2-trifluoroethoxy)phenoxy)benzamide], with 0.39 µM; and `O=C(Nc1cc[nH]c(=O)c1)c1cc(F)ccc1Oc1ccc(OCC2CC2)cc1` [Compound 108, 2-(4-(cyclopropylmethoxy)phenoxy)-5-fluoro-N-(2-oxo-1,2-dihydropyridin-4-yl)benzamide], with 0.285 µM; and `COc1ccc(Oc2cc(C(F)(F)F)ccc2C(=O)Nc2cc[nH]c(=O)c2)c(Cl)c1F` [Compound 110, 2-(2-chloro-3-fluoro-4-methoxyphenoxy)-N-(2-oxo-1,2-dihydropyridin-4-yl)-4-(trifluoromethyl)benzamide], with 0.89 µM.
For the molecule `Cc1cc(F)ccc1Oc1cc(C(F)(F)C(F)(F)F)ccc1C(=O)Nc1cc[nH]c(=O)c1` [Compound 112, 2-(4-fluoro-2-methylphenoxy)-N-(2-oxo-1,2-dihydropyridin-4-yl)-4-(perfluoroethyl)benzamide], the IC50 was determined as 0.016 µM.
Then `CC(C)CCOc1cc(C(F)(F)F)ccc1C(=O)Nc1cc[nH]c(=O)c1` [Compound 116, 2-(isopentyloxy)-N-(2-oxo-1,2-dihydropyridin-4-yl)-4-(trifluoromethyl)benzamide], with 0.488 µM.
Then `CC(C)COc1cc(C(F)(F)F)ccc1C(=O)Nc1cc[nH]c(=O)c1` [Compound 117, 2-isobutoxy-N-(2-oxo-1,2-dihydropyridin-4-yl)-4-(trifluoromethyl)benzamide], with 1.15 µM.
Take `O=C(Nc1cc[nH]c(=O)c1)c1ccc(C(F)(F)F)cc1O[C@@H]1C[C@H]2CCC1C2` [Compound 118, 2-((2R)-bicyclo[2.2.1]heptan-2-yloxy)-N-(2-oxo-1,2-dihydropyridin-4-yl)-4-(trifluoromethyl)benzamide]: half-maximal inhibition (IC50) was put at 0.765 µM.
Molecule `CC1(COc2cc(C(F)(F)F)ccc2C(=O)Nc2cc[nH]c(=O)c2)CC1` [Compound 119] gave an IC50 of 14 µM.

For the origin of these results see patent US9051270B2, “Pyridone amides as modulators of sodium channels” (Vertex Pharmaceuticals Incorporated, priority 2013, dated 2015).
